For 32 compounds, log(RBA) results are on record in ChEMBL document CHEMBL3272135, “Quantitative relationships between steroid structure and binding to putative progesterone receptors” (J Med Chem, 1977).

The structures appear in SMILES notation.

The target in experiment [1] is T1, Progesterone receptor (Homo sapiens) (UniProt P06401).
T1 sequence (whole entry): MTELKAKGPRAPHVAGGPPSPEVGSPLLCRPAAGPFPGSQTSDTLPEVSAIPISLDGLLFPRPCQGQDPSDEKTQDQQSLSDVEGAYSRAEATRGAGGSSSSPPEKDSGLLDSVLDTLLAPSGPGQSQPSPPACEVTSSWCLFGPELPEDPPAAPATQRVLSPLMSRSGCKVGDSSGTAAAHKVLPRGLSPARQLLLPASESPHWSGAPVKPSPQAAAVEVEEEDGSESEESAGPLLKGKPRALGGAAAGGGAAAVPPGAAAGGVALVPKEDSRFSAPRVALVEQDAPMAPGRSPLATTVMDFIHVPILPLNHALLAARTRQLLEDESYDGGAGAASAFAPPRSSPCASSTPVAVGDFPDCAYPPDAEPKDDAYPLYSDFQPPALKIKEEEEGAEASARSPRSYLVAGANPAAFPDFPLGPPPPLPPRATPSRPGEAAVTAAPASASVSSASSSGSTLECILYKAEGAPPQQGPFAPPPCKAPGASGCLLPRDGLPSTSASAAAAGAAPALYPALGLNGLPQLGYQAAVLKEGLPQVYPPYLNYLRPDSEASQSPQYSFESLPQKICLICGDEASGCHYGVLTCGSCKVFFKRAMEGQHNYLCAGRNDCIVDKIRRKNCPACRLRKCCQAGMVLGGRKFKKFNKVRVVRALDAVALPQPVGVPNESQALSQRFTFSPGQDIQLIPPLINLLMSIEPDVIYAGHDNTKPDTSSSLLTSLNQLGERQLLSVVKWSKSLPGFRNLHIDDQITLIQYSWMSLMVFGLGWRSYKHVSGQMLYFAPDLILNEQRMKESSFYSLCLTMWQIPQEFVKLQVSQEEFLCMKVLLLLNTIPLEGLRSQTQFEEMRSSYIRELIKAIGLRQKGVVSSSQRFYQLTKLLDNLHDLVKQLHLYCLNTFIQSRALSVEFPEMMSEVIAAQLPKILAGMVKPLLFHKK

The next experiment is filed under the species Cavia porcellus. Kind of experiment: Relative binding affinity to guinea pig progesterone receptor.
Experiment [2] addresses T2, Progesterone receptor (Ovis aries) (UniProt Q28590).
T2 sequence (whole entry): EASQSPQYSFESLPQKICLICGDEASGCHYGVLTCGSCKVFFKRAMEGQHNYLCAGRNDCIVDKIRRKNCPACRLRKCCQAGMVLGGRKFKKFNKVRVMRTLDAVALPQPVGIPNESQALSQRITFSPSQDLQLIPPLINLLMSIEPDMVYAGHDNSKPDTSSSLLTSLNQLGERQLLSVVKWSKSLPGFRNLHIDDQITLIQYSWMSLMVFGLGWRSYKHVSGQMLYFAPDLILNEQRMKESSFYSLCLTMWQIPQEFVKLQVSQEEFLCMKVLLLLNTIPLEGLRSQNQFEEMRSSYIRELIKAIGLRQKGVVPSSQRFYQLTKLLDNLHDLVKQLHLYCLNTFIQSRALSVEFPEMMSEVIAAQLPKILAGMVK
The experiment is described as follows: Relative binding affinity to sheep progesterone receptor.

Experiment [3] deals with T3, Progesterone receptor (Oryctolagus cuniculus) (UniProt P06186).
T3 sequence (whole entry): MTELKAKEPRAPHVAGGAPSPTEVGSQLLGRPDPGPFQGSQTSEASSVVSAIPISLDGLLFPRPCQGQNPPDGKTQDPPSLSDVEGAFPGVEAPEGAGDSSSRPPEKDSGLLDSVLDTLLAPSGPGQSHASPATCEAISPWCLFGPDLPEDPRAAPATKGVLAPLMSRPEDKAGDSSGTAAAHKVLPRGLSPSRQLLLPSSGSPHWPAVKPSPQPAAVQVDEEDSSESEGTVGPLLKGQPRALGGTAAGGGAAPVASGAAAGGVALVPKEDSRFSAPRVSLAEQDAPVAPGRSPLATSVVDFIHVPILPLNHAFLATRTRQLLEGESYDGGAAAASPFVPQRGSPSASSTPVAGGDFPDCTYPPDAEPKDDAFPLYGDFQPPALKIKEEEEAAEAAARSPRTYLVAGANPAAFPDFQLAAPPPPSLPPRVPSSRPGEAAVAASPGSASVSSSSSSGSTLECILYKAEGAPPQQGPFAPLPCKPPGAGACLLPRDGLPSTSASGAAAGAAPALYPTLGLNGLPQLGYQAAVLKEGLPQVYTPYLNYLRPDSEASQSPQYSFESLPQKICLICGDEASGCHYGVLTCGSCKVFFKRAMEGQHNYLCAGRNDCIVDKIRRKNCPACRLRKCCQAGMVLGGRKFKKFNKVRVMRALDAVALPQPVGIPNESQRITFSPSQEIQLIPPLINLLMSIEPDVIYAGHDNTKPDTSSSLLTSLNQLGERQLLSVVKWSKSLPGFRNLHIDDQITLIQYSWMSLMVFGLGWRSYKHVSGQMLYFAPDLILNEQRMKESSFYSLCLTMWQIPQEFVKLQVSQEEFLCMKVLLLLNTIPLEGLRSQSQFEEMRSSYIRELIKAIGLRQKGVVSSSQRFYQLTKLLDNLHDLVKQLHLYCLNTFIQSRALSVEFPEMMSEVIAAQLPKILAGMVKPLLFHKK
Kind of experiment: Relative binding affinity to rabbit progesterone receptor.

Turning to `CC(=O)O[C@]1(C(C)=O)CC[C@H]2[C@@H]3CCC4=C(O)C(=O)CC[C@]4(C)[C@H]3CC[C@@]21C`, the log(RBA) in experiment [1] was 1.62; in the experiment filed under Cavia porcellus, -0.4; in experiment [2], 1.2; in experiment [3], 1.77.
The like results for `CC(=O)[C@H]1CC[C@H]2[C@@H]3CCC4=CC(=O)CC[C@@H]4[C@H]3CC[C@]12C` were, in that order, 2.11, 2.06, 2.13 and 2.41.
The like results for `C#C[C@]1(O)CC[C@H]2[C@@H]3CCC4=C[C@@H](O)CC[C@@H]4[C@H]3CC[C@@]21C` were, in that order, 1.4, -0.22, 1 and 1.3.
The like results for `CC(=O)[C@@]12[C@@H](C[C@H]3[C@@H]4CCC5=CC(=O)CC[C@]5(C)[C@H]4CC[C@@]31C)C2(C)C` were, in that order, 2.11, 1, 1.9 and 2.38.
Turning to `CC[C@@H]1C[C@H]2[C@@H]3C=CC4=CC(=O)CC[C@@H]4[C@H]3CC[C@]2(C)[C@H]1C(=O)CF`, the log(RBA) in experiment [1] came to 2.15; in the experiment listed under Cavia porcellus, 1.17; in experiment [2] it was 2.13; in experiment [3], 2.24.
The like results for `CC(=O)[C@@]12O[C@@H]1C[C@H]1[C@@H]3CCC4=CC(=O)CC[C@]4(C)[C@H]3CC[C@@]12C` were, in that order, 0, -0.046, -0.52 and -0.097.
The compound `C#C[C@]1(O)CC[C@H]2[C@@H]3CCC4=CC(=O)CCC4=C3C=C[C@@]21CCC` gave a log(RBA) in experiment [3] of 0.7.
With `CC(=O)[C@H]1CC[C@H]2[C@@H]3CCC4=CC(=O)CC[C@]4(CO)[C@H]3CC[C@]12C`, the log(RBA) in experiment [1] was -0.52; in the experiment filed under Cavia porcellus, -0.22; in experiment [2], -0.52; in experiment [3], -0.301.
Regarding `C[C@@H](O)[C@H]1CC[C@H]2[C@@H]3CCC4=CC(=O)CC[C@]4(C)[C@H]3CC[C@]12C`, the log(RBA) was found to be 0.3 in experiment [1], 0 in the experiment listed under Cavia porcellus, 0 in experiment [2] and 1.01 in experiment [3].
Consider `C#C[C@]1(O)CC[C@H]2[C@@H]3CC[C@H]4C[C@H](O)CC[C@@H]4[C@H]3CC[C@@]21C`, for which the log(RBA) in experiment [1] is -1; in the experiment filed under Cavia porcellus, -2; in experiment [2], -1.52; in experiment [3] it was -1.
Compound `CC(=O)[C@@]1(C)CC[C@H]2[C@@H]3CCC4=CC(=O)CCC4=C3CC[C@@]21C` gave a log(RBA) in experiment [3] of 2.3.
`C#C[C@]1(O)CC[C@H]2[C@@H]3CC=C4CCCC[C@@H]4[C@H]3CC[C@@]21C`: the log(RBA) in experiment [1] is -1; in the experiment filed under Cavia porcellus, -1.15; in experiment [2], -0.7; in experiment [3], -0.523.
Consider `CC(=O)O[C@]1(C(C)=O)CC[C@H]2[C@@H]3C=C(Cl)C4=CC(=O)CC[C@]4(C)[C@H]3CC[C@@]21C`, for which the log(RBA) in experiment [1] is 2.08; in the experiment filed under Cavia porcellus, -0.097; in experiment [2], 1.78; in experiment [3] it was 2.16.
The like results for `CC[C@@H]1C[C@H]2[C@@H]3CCC4=CC(=O)CC[C@@H]4[C@H]3CC[C@]2(C)[C@H]1C(=O)CO` were, in that order, 2.16, 1.4, 1.98 and 2.44.
Regarding `CCC(=O)[C@@]1(C)CC[C@H]2[C@@H]3CCC4=CC(=O)CCC4=C3CC[C@@]21C`, the log(RBA) in experiment [3] came out at 2.48.
With `CC(=O)OCC(=O)[C@H]1CC[C@H]2[C@@H]3CCC4=CC(=O)CC[C@]4(C)[C@H]3CC[C@]12C`, the log(RBA) in experiment [1] is 1; in the experiment filed under Cavia porcellus, 1.34; in experiment [2], 1; in experiment [3], 1.69.
As to `C#C[C@]1(O)CC[C@H]2[C@@H]3CCC4=C(CCC(=O)C4)[C@H]3CC[C@@]21C`, the log(RBA) was 1.34 in experiment [1], 3 in the experiment filed under Cavia porcellus, 0.845 in experiment [2] and 1.56 in experiment [3].
For `C[C@]12CCC(=O)C[C@@H]1CC[C@@H]1[C@@H]2CC[C@]2(C)[C@@H](O)CC[C@@H]12`, the log(RBA) was determined as 0.3 in experiment [1] and 0 in experiment [2].
Turning to `CC[C@@H]1C[C@H]2[C@@H]3CCC4=CC(=O)CC[C@]4(C)[C@H]3CC[C@]2(C)[C@H]1C(C)=O`, the log(RBA) in experiment [1] came to 1.98; in the experiment listed under Cavia porcellus, 1.08; in experiment [2], 1.87; in experiment [3] it was 1.98.
`C[C@H](O)[C@H]1CC[C@H]2[C@@H]3CCC4=CC(=O)CC[C@]4(C)[C@H]3CC[C@]12C`: the log(RBA) stood at 1 in experiment [1], 0.6 in the experiment filed under Cavia porcellus, 0.7 in experiment [2] and 0.778 in experiment [3].
The like results for `CC(=O)[C@@]1(O)CC[C@H]2[C@@H]3CCC4=CC(=O)CC[C@]4(C)[C@H]3CC[C@@]21C` were, in that order, -0.15, -0.52, -0.3 and -0.097.
The like results for `C#C[C@]1(O)CC[C@H]2[C@@H]3CCC4=CCCC[C@@H]4[C@H]3CC[C@@]21C` were, in that order, 0.7, -0.52, 0.602 and 1.11.
In the case of `CCCCCC(=O)O[C@]1(C(C)=O)CC[C@H]2[C@@H]3CCC4=CC(=O)CC[C@]4(C)[C@H]3CC[C@@]21C`, the log(RBA) in experiment [1] and in experiment [3] was 1.88 in each case.
With `CC(=O)[C@@]1(C)CC[C@H]2[C@@H]3CCC4=CC(=O)CC[C@@H]4[C@H]3CC[C@@]21C`, the log(RBA) in experiment [3] is 2.7.
For `CC(=O)[C@H]1CC[C@H]2[C@@H]3CC=C4C[C@@H](O)CC[C@]4(C)[C@H]3CC[C@]12C`, the log(RBA) was -0.69 in experiment [1], -0.52 in the experiment listed under Cavia porcellus and -0.301 in experiment [3].
In experiment [3], `C#C[C@]1(O)CC[C@H]2[C@@H]3CCC4=CC(=O)CC[C@@H]4[C@H]3CC[C@@]21CCC` had a log(RBA) of 1.54.
Same read-out and setting: the same measure for `CC(=O)[C@@]1(C)CC[C@H]2[C@@H]3CCC4=CC(=O)CCC4=C3C=C[C@@]21C`: 1.74.
On the same count and under the same terms, the same measure for `C#C[C@]1(O)CC[C@H]2[C@@H]3CCC4=CC(=O)CCC4=C3C=C[C@@]21C`: 1.3.
`CC(=O)[C@H]1CC[C@H]2[C@@H]3CCC4=CC(=O)CCC4=C3CC[C@]12C`: in experiment [3], the log(RBA) is 2.
Regarding `C[C@]12CC[C@H]3[C@@H](CCC4=CC(=O)CC[C@@]43C)[C@@H]1CC[C@@H]2O`, the log(RBA) is 0 in the experiment listed under Cavia porcellus, 0 in experiment [2] and -0.22 in experiment [3].
Consider `C#C[C@]1(O)CC[C@H]2[C@@H]3CCC4=CC(=O)CCC4=C3C=C[C@@]21CC`, for which the log(RBA) in experiment [3] was 1.3.
Still for that read-out and setting: the figure for `CC(=O)[C@H]1CC[C@H]2[C@@H]3CCC4=CC(=O)CCC4=C3C=C[C@]12C` is 1.3.
